From PubChem BioAssay AID2045 (NMMLSC, 2009)

Molecular target: Ras-related protein Rab-2A (Canis lupus familiaris) (UniProt P61105)
Assay: Rab2A fluorescent GTP competition potency – biochemical, pyrazoline series, Bodipy-FL-GTP, flow cytometry, multiplex, SAR follow-up (AID 2045)
Conditions: Bead-based flow cytometry, Bodipy-FL-GTP binding to Rab2; Ki calculated from EC50

Ras-related protein Rab-2A (Canis lupus familiaris), sequence (P61105 whole entry, looked up): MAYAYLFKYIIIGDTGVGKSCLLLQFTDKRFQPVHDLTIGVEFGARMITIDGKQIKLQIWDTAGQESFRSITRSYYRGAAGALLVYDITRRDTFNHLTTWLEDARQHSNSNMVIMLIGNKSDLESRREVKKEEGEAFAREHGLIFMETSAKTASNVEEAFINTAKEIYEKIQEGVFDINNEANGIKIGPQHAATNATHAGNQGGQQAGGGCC

Ki [nM]	SMILES
60	COc1ccc(C2=NN(c3cccc(F)c3)C(c3ccc(OC)cc3)C2)cc1 (configuration not stated)
110	COc1ccc(C2=NN(c3ccc(S(N)(=O)=O)cc3)C(c3ccc(OC)cc3)C2)cc1 (configuration not stated)
